Data taken from patent US9376387B2 (priority 2013, dated 2016).
Like-named read-outs stand apart in the source and are kept apart here.

Legend:
[1] = molecular target: T1, hAChE (human erythrocyte membranes as a AChE source) (Homo sapiens, UniProt P22303); experiment: acetylcholinesterase (AChE) activity, modified Ellman method; format: biochemical; settings: acetylthiocholine iodide substrate, pH=7.4
T1 construct: human erythrocyte membranes as a AChE source; from tissue; host or cells: human erythrocyte membranes

[2] = molecular target: EqBuChE (Equus caballus, UniProt P81908); experiment: biochemical
[3] = hAChE IC50, modified Ellman method

Sequence of EqBuChE (P81908 whole entry): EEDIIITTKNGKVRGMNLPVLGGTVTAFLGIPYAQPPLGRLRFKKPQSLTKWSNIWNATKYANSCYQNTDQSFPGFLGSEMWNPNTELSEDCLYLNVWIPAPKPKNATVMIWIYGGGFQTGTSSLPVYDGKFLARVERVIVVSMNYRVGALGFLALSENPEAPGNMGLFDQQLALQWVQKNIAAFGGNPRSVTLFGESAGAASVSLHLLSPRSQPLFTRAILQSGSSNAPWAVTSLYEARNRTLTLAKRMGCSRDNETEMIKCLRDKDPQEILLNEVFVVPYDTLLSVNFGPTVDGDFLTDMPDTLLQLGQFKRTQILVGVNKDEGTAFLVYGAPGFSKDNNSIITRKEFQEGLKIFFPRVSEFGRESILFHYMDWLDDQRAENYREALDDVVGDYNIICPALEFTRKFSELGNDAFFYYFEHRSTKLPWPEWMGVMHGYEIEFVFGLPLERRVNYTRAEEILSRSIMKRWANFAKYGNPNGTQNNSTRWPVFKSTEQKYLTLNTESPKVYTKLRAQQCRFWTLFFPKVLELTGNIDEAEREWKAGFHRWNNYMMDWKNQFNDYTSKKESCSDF
T1 sequence (P22303 32-617 isoform P22303-2 limits assumed): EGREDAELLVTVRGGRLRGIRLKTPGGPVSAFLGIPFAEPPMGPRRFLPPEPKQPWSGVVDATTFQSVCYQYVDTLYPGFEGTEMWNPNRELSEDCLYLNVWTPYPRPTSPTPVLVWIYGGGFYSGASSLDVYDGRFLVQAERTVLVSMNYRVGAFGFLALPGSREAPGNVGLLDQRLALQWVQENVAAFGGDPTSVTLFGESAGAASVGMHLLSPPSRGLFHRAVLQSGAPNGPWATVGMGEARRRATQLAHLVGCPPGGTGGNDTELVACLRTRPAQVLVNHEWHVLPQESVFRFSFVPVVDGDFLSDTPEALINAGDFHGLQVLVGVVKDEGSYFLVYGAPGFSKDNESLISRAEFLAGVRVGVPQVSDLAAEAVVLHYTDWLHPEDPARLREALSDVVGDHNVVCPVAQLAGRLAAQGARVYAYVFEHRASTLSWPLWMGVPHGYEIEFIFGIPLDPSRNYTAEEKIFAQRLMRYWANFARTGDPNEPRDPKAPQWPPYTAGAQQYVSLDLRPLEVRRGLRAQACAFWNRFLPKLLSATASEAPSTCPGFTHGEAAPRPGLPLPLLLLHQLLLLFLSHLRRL

Compound	IC50 [1, 3]	IC50 ([2]; EqBuChE IC50)	IC50 ([1]; modified Ellman method, read-out: hAChE IC50)	IC50 ([2]; read-out: EqBuChE IC50)
COc1ccc2c(c1)CCC(Cc1cc[n+](Cc3ccccc3[N+](=O)[O-])cc1C(C)=O)C2=O (stereo not shown) [Compound 125, 2-[[3-acetyl-1-[(2-nitrophenyl)methyl]pyridin-1-ium-4-yl]methyl]-6-methoxy-tetralin-1-one bromide]	57.7 nM	592 nM	–	–
COc1cc2c(cc1OC)C(=O)C(Cc1cc[n+](Cc3cccc(C)c3)cc1Br)C2 (stereo not shown) [Compound 146, 2-[[3-bromo-1-(m-tolylmethyl)pyridin-1-ium-4-yl]methyl]-5,6-dimethoxy-indan-1-one bromide]	0.465 nM	3860 nM	–	–
COc1ccc2c(c1)CC(Cc1cc[n+](Cc3ccccc3C)cc1C(C)=O)C2=O (stereo not shown) [Compound 138, 2-[[3-acetyl-1-(o-tolylmethyl)pyridin-1-ium-4-yl]methyl]-5-methoxy-indan-1-one bromide]	30 nM	2990 nM	–	–
CC(=O)C1=CN(Cc2ccccc2C)C=CC1CC1Cc2cc(C)c(C)cc2C1=O (stereo not shown) [Compound 166, 2-[[3-acetyl-1-(o-tolylmethyl)-4H-pyridin-4-yl]methyl]-5,6-dimethyl-indan-1-one]	653 nM	1260 nM	–	–
COc1cc2c(cc1OC)C(=O)C(Cc1cc[n+](Cc3ccccc3)cc1F)CC2 (stereo not shown) [Compound 133, 2[(1-benzyl-3-fluoro-pyridin-1-ium-4-yl)methyl]-6,7-dimethoxy-tetralin-1-one bromide]	9.1 nM	508 nM	–	–
CC(=O)c1c[n+](Cc2ccccc2C)ccc1CC1Cc2cc(C)c(C)cc2C1=O (stereo not shown) [Compound 152, 2-[[3-acetyl-1-(o-tolylmethyl)pyridin-1-ium-4-yl]methyl]-5,6-dimethyl-indan-1-one bromide]	37.7 nM	262 nM	–	–
COc1ccc2c(c1)CCC(Cc1cc[n+](Cc3ccccc3)cc1C(C)=O)C2=O (stereo not shown) [Compound 119, 2-[(3-acetyl-1-benzyl-pyridin-1-ium-4-yl)methyl]-6-methoxy-tetralin-1-one bromide]	71 nM	412 nM	–	–
COc1cc2c(cc1OC)C(=O)C(Cc1cc[n+](Cc3cccc(Cl)c3)cc1C(C)=O)C2 (stereo not shown) [Compound 144, 2-[[3-acetyl-1-[(3-chlorophenyl)methyl]pyridin-1-ium-4-yl]methyl]-5,6-dimethoxy-indan-1-one bromide]	3.2 nM	3340 nM	–	–
COc1ccc2c(c1)CCC(Cc1cc[n+](Cc3cccc(C)c3)cc1C(C)=O)C2=O (stereo not shown) [Compound 120, 2-[[3-acetyl-1-(m-tolylmethyl)pyridin-1-ium-4-yl]methyl]-6-methoxy-tetralin-1-one bromide]	110 nM	596 nM	–	–
COc1cc2c(cc1OC)C(=O)C(Cc1cc[n+](Cc3ccccc3)cc1Br)C2 (stereo not shown) [Compound 145, 2-[(1-benzyl-3-bromo-pyridin-1-ium-4-yl)methyl]-5,6-dimethoxy-indan-1-one bromide]	–	–	0.36 nM	1790 nM
COc1cc2c(cc1OC)C(=O)C(CC1C=CN(Cc3cccc(Cl)c3)C=C1C(C)=O)C2 (stereo not shown) [Compound 77, 2-[[3-acetyl-1-[(3-chlorophenyl)methyl]-4H-pyridin-4-yl]methyl]-5,6-dimethoxy-indan-1-one]	543 nM	13500 nM	–	–
COc1ccc2c(c1)CCC(Cc1cc[n+](Cc3ccccc3C)cc1C(C)=O)C2=O (stereo not shown) [Compound 121, 2-[[3-acetyl-1-(o-tolylmethyl)pyridin-1-ium-4-yl]methyl]-6-methoxy-tetralin-1-one bromide]	10 nM	433 nM	–	–
COc1ccc2c(c1)CCC(Cc1cc[n+](Cc3ccc(C)cc3)cc1C(C)=O)C2=O (stereo not shown) [Compound 130, 2-[[3-acetyl-1-(p-tolylmethyl)pyridin-1-ium-4-yl]methyl]-6-methoxy-tetralin-1-one bromide]	556 nM	4140 nM	–	–
COc1ccc2c(c1)CCC(Cc1cc[n+](Cc3ccccc3)cc1C(C)=O)C2=O (stereo not shown) [Compound 82, 2-[(3-acetyl-1-benzyl-pyridin-1-ium-4-yl)methyl]-6-methoxy-tetralin-1-one chloride]	76 nM	371 nM	–	–
